Assay results as given in patent publication US20240336629A1, “Tricyclic Derivatives Useful As PARP7 Inhibitors” (JACOBIO PHARMACEUTICALS CO., LTD., priority 2021, published 2024).
Read-outs that look alike come from different tables or passages of the source.

Key:
[1] = Mouse pharmacokinetic study; type: in vivo; conditions: Balb/c mouse; for clearance / Vd: iv; for Vd: read-out: Vss; for bioavailability: read-out: Oral BA (F %)
PARP7 enzyme = PARP7 enzyme (Homo sapiens (Human), UniProt Q7Z3E1); test: PARP7 enzymatic experiment (HTRF assay); type: biochemical; conditions: 4PL fit
Chain of PARP7 enzyme (Q7Z3E1 456-657): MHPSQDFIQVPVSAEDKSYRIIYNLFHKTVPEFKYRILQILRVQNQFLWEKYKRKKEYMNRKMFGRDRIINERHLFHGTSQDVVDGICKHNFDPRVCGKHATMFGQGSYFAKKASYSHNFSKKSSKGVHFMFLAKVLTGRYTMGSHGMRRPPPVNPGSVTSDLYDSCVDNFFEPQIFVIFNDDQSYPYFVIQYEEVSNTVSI

[2] = tested on: lung cancer cell line H1373 (high expression of PARP7); test: Lung cancer cell proliferation inhibition experiment (CTG method); type: cell-based; conditions: H1373 cells, 144 hrs incubation, Cell Titer Glo
[3] = plasma, po, 100 mg/kg p.o. vs 3 mg/kg i.v.
[4] = plasma, po, single 100 mg/kg, p.o., read-out: Cmax
[5] = plasma, oral, 100 mg/kg p.o. vs 3 mg/kg i.v.

| Compound | pharmacokinetic properties (in words) [1] | IC50 (PARP7 enzyme) | IC50 ([2]; Homo sapiens, NCI-H1373, 144 h) | clearance ([1]; plasma, single 3 mg/kg) | Vd ([1]; plasma, single 3 mg/kg, i.v.) | AUC(0-t) ([1]; plasma, po, single 100 mg/kg) | Cmax [1, 4] | other results |
| --- | --- | --- | --- | --- | --- | --- | --- | --- |
| CC(C)N1C(=O)[C@@H]2CN(C(=O)CCOC[C@H](C)Nc3cn[nH]c(=O)c3C(F)(F)F)CCN2c2ncc(C(F)(F)F)cc21 (single isomer, unassigned) [Compound 24A] | good pharmacokinetic properties | 0.00207 µM |  |  |  |  |  |  |
| C[C@H](COCCC(=O)N1CCN2c3ncc(Cl)cc3N(C)C(=O)[C@@H]2C1)Nc1cn[nH]c(=O)c1C(F)(F)F [Compound 82A] |  | 0.000744 µM | 0.0475 µM | 32 mL/min/kg | 0.4 L/kg | 26400 ng·h/mL | 21700 ng/mL | bioavailability [1, 3]: 48% |
| Cc1c2n(c3ncc(C(F)(F)F)cc13)CCN(C(=O)CCOC[C@H](C)Oc1cn[nH]c(=O)c1C(F)(F)F)C2 [Compound 45] | good pharmacokinetic properties |  | 0.013 µM |  |  |  |  |  |
| C[C@@H](COCCC(=O)N1CCN2c3ncc(C(F)(F)F)cc3OC[C@@H]2C1)Oc1cn[nH]c(=O)c1C(F)(F)F [Compound 51] |  |  |  | 22 mL/min/kg | 0.5 L/kg | 91400 ng·h/mL | 38200 ng/mL | IC50 ([2]; Homo sapiens, NCI-H1373): 0.0346 µM; bioavailability [1, 5]: 121% |
| C[C@@H](COCCC(=O)N1CCN2c3nc(F)c(Cl)cc3N(C)C(=O)[C@@H]2C1)Nc1cn[nH]c(=O)c1C(F)(F)F [Compound 14A] | good pharmacokinetic properties | 0.0106 µM |  |  |  |  |  |  |
| Cc1c(Cl)cnc2c1OCC[C@@H]1CN(C(=O)CCOC[C@H](C)Oc3cn[nH]c(=O)c3C(F)(F)F)CCN21 (single isomer, unassigned) [Compound 85A] |  |  | 0.0207 µM | 60 mL/min/kg | 0.5 L/kg | 86100 ng·h/mL | 24200 ng/mL | bioavailability [1, 3]: 301% |
| CCN1c2ncc(Cl)cc2OCC[C@@H]1CNC(=O)CCOC[C@@H](C)Oc1cn[nH]c(=O)c1C(F)(F)F (single isomer, unassigned) [Compound 84A] |  | 0.00101 µM |  |  |  |  |  | IC50 [2]: 0.0215 µM; Oral BA (F %) ([1]; 100 mg/kg p.o. vs 3 mg/kg i.v.): 106%; CL ([1]; single 3 mg/kg, i.v.): 41 mL/min/kg; Vss ([1]; single 3 mg/kg, i.v.): 0.5 L/kg; AUClast ([1]; single 100 mg/kg, p.o.): 43382 ng·h/mL; Cmax ([1]; single 100 mg/kg, p.o.): 15033 ng/mL |
| C[C@@H](COCCC(=O)N1CCN2c3ncc(C(F)(F)F)cc3SCC[C@@H]2C1)Oc1cn[nH]c(=O)c1C(F)(F)F [Compound 86A] |  | 0.0025 µM | 0.0119 µM | 54 mL/min/kg | 1.4 L/kg | 20300 ng·h/mL | 7860 ng/mL | bioavailability [1, 3]: 66% |
| C[C@@H](COCCC(=O)N1CCn2c(cc3cc(C(F)(F)F)cnc32)C1)Oc1cn[nH]c(=O)c1C(F)(F)F [Compound 47A] |  |  | 0.0609 µM | 16 mL/min/kg | 0.5 L/kg | 95200 ng·h/mL | 41100 ng/mL | bioavailability [1, 5]: 90% |
| C[C@@H](COCCC(=O)N1CCN2c3ncc(C(F)(F)F)cc3SCC[C@@H]2C1)Nc1cn[nH]c(=O)c1C(F)(F)F (single isomer, unassigned) [Compound 71A] | good pharmacokinetic properties | 0.00153 µM |  |  |  |  |  | IC50 [2]: 0.0139 µM |
| C[C@@H](COCCC(=O)N1CCN2c3ncc(Cl)cc3N(C)C(=O)[C@@H]2C1)Nc1cn[nH]c(=O)c1C(F)(F)F (single isomer, unassigned) [Compound 20A] | good pharmacokinetic properties | 0.00151 µM | 0.0539 µM |  |  |  |  |  |
| C[C@@H]1C[C@H]2CN(C(=O)CCOC[C@@H]3CCN3c3cn[nH]c(=O)c3C(F)(F)F)CCN2c2ncc(C(F)(F)F)cc21 (single isomer, unassigned) [Compound 94B] |  | 0.00294 µM |  |  |  |  |  | IC50 [2]: 0.0133 µM |
| CN1C(=O)[C@@H]2CN(C(=O)CCOC[C@@H]3CCCN3c3cn[nH]c(=O)c3C(F)(F)F)CCN2c2ncc(C(F)(F)F)cc21 (single isomer, unassigned) [Compound 98A] |  | 0.00125 µM |  |  |  |  |  | IC50 [2]: 0.0555 µM |
| CC[C@@H](COCCC(=O)N1CCN2c3ncc(C(F)(F)F)cc3N(C)C(=O)[C@@H]2C1)Nc1cn[nH]c(=O)c1C(F)(F)F [Compound 15A] |  | 0.00193 µM | 0.0824 µM |  |  |  |  |  |
| O=C(CCOC[C@@H]1CCN1c1cn[nH]c(=O)c1C(F)(F)F)N1CCN2c3ncc(C(F)(F)F)cc3C(F)(F)C[C@H]2C1 [Compound 93B] |  | 0.00209 µM | 0.0104 µM |  |  |  |  |  |
